Target: Protein cereblon/Peptidyl-prolyl cis-trans isomerase FKBP1A (Homo sapiens, UniProt P62942+Q96SW2)
Assay: Protac activity at CRBN/FKBP12 in human Jurkat cells
Type: cell-based

Sequence of Protein cereblon/Peptidyl-prolyl cis-trans isomerase FKBP1A (P62942 whole entry): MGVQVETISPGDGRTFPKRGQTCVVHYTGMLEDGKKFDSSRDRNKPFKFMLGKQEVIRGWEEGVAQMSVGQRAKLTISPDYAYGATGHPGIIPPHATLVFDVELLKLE
Sequence of Protein cereblon/Peptidyl-prolyl cis-trans isomerase FKBP1A (Q96SW2 whole entry): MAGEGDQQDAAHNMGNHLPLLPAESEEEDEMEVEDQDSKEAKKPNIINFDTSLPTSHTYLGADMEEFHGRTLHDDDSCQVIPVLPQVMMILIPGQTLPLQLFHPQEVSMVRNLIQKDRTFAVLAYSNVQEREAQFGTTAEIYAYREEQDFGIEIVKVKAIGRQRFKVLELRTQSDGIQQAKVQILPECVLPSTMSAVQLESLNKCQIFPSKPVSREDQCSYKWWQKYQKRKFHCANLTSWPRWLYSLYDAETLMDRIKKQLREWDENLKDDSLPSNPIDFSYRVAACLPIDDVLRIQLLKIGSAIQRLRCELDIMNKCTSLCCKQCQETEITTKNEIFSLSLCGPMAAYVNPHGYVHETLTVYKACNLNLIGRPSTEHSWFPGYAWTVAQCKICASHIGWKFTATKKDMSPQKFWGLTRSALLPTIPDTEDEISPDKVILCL

DC50: 0.3 nM
Compound: COC1C(=O)[C@H](C)C[C@H](C)/C=C/C=C/C=C(\C)[C@@H](OC)C[C@@H]2CC[C@@H](C)[C@@](O)(O2)C(=O)C(=O)N2CCCC[C@H]2C(=O)O[C@H]([C@H](C)C[C@@H]2CC[C@@H](OCCOCc3cn(CCOCCOCCNc4cccc5c4C(=O)N(C4CCC(=O)NC4=O)C5=O)nn3)[C@H](OC)C2)CC(=O)[C@H](C)/C=C(\C)[C@H]1O (stereo partly specified)
